The subject of series [1] is Trichomonas vaginalis G3 trophozoites. Particulars: for T.vaginalis_Absorbance_Rep1: replicate 1, raw absorbance; for T.vaginalis_Absorbance_Rep2: replicate 2, raw absorbance.
The test system of series [2] is nontumorigenic neonatal foreskin fibroblast (NFF) cell line.
The mark [3] stands for this setting: HTS single concentration, parasite screen 1 µg/mL, replicate 1.
Setting [4] is: HTS single concentration, parasite screen 1 µg/mL, replicate 2.
Where [5] appears, read: NFF_NS1 screen 5 µg/mL, single concentration.
Where [6] appears, read: replicate 1, parasite screen at 1 µg/mL.
[7] abbreviates: replicate 2, parasite screen at 1 µg/mL.
The mark [8] stands for this setting: HTS, parasite screen at 1 µg/mL, replicate 1.
Setting [9] is: HTS, parasite screen at 1 µg/mL.
Where [10] appears, read: HTS, parasite screen at 1 µg/mL, replicate 2.

Where two headings read alike, the source gives them in different places.

Data on 22 molecules can be found in PMC7897990, “TriTOX: A novel Trichomonas vaginalis assay platform for high-throughput screening of compound libraries” (International Journal for Parasitology: Drugs and Drug …, 2021).

On to `CC(=O)OCC1=C[C@@H]2OC(=O)C3=CO[C@@H](O[C@@H]4O[C@H](CO)[C@@H](O)[C@H](O)[C@H]4O)[C@H]1[C@@H]32` [BIA-A1774], for which the T.vaginalis_%inb_Rep1 in series [1] (setting [3]) is listed as 16.59%. Moreover, in series [1] (setting [4]), the T.vaginalis_%inb_Rep2 came out at 15.84%. The NFF_Activity result in series [2] (setting [5]) was “I (otherwise these were reported as inactive (I))”.

In turn, `CCC(C)C(=O)OC1CCC=C2C=CC(C)C(CCC3CC(O)CC(=O)O3)C21` (stereo not shown) [BIA-M1209] displayed a T.vaginalis_%inb_Rep1 in series [1] (setting [6]) of 12.32%. In addition, the T.vaginalis_%inb_Rep2 in series [1] (setting [7]) was found to be 10.01%. Besides, the NFF_Activity result in series [2] (NFF cells, screen at 5 µg/mL) is “I (otherwise these were reported as inactive (I))”.

In turn, `CC(=O)NCCc1cnc[nH]1` [BIA-A1737] displayed a T.vaginalis_%inb_Rep1 in series [1] (setting [3]) of 14.86%. In series [1] (setting [4]), this molecule had a T.vaginalis_%inb_Rep2 of 38.90%. Further, in series [2] (setting [5]), the NFF_Activity result was “I (otherwise these were reported as inactive (I))”.

Molecule `C=CC(C)(C)C12CC3C(=O)Nc4ccccc4C(=O)N3C1N(C(C)=O)c1ccccc12` (stereo not shown) [BIA-A1687] displayed a T.vaginalis_%inb_Rep1 in series [1] (setting [3]) of 18.36%. Also, the T.vaginalis_%inb_Rep2 in series [1] (setting [4]) came to 16.20%. Also, in series [2] (setting [5]), the NFF_Activity result was “I (otherwise these were reported as inactive (I))”.

In series [1] (setting [3]), `O=[N+]([O-])c1ncc[nH]1` [BIA-A1690] yielded a T.vaginalis_%inb_Rep1 of 15.19%. In series [1] (setting [4]), this molecule yielded a T.vaginalis_%inb_Rep2 of 9.83%. In addition, in series [2] (setting [5]), the NFF_Activity result is “I (otherwise these were reported as inactive (I))”.

`CCCCCC(=O)N[C@H]1CCOC1=O` [BIA-H1495] gave a T.vaginalis_%inb_Rep1 in series [1] (setting [6]) of 10.40%. Besides, the T.vaginalis_%inb_Rep2 in series [1] (setting [7]) worked out at 12.70%. Moreover, the NFF_Activity entry in series [2] (NFF cells, screen at 5 µg/mL) was “I (otherwise these were reported as inactive (I))”.

In series [1] (setting [8]), `COc1cc(/C=C/C(=O)O)ccc1O` [Ferulic acid] came in with a T.vaginalis_%inb_Rep1 of 13.69%. In series [1] (setting [9]), this molecule showed a T.vaginalis_Absorbance_Rep1 of 0.972 and a T.vaginalis_Absorbance_Rep2 of 0.832. For the same molecule, the T.vaginalis_%inb_Rep2 in series [1] (setting [10]) came to 12.64%. The NFF_Activity result in series [2] (NFF_NS1 screen at 5 µg/mL) is “I (otherwise these were reported as inactive (I))”.

As to `Cc1cc(O)c(C)c(O)c1C(=O)O` [BIA-M1661], in series [1] (setting [6]), the T.vaginalis_%inb_Rep1 amounted to 12.78%. This molecule also returned a T.vaginalis_%inb_Rep2 in series [1] (setting [7]) of 12.06%. The NFF_Activity entry in series [2] (NFF cells, screen at 5 µg/mL) was “A (active (A) compounds having >25% inhibitory activity)”.

Molecule Echinocandin B came in with a T.vaginalis_%inb_Rep1 in series [1] (setting [8]) of 15.24%. In series [1] (setting [9]), this molecule returned a T.vaginalis_Absorbance_Rep1 of 0.992 and a T.vaginalis_Absorbance_Rep2 of 0.711. The T.vaginalis_%inb_Rep2 in series [1] (setting [10]) turned out to be 6.58%. For the same molecule, the NFF_Activity result in series [2] (NFF_NS1 screen at 5 µg/mL) is “I (otherwise these were reported as inactive (I))”.

With `C[C@H]1CC[C@H]2[C@@H](C=C[C@@H]3[C@H]4[C@@H](C)O[C@]5(O)[C@@H](CO)N(C)C(=O)[C@]45C(=O)[C@@]32C)C1` [Fusarisetin A], the T.vaginalis_%inb_Rep1 in series [1] (setting [8]) is listed as 14.05%. Besides, in series [1] (setting [9]), the T.vaginalis_Absorbance_Rep1 was found to be 0.979 and the T.vaginalis_Absorbance_Rep2 was 0.869. In addition, the T.vaginalis_%inb_Rep2 in series [1] (setting [10]) stood at 15.01%. Moreover, the NFF_Activity result in series [2] (NFF_NS1 screen at 5 µg/mL) was “I (otherwise these were reported as inactive (I))”.

In series [1] (setting [6]), `CC[C@H](C)C(=O)O[C@H]1C[C@@H](C)C=C2C=C[C@H](C)[C@H](CC[C@@H]3C[C@@H](O)CC(=O)O3)[C@H]21` [BIA-L1264] had a T.vaginalis_%inb_Rep1 of 13.08%. For the same molecule, the T.vaginalis_%inb_Rep2 in series [1] (setting [7]) was 12.64%. Moreover, the NFF_Activity entry in series [2] (NFF cells, screen at 5 µg/mL) was “A (active (A) compounds having >25% inhibitory activity)”.

In turn, `CC[C@H]1/C=C/C=C/C[C@@H](C)[C@H](O)[C@@](C)(O)C(=O)[C@@H](C)[C@H](O)[C@@H](C)C(=O)[C@@H](C)[C@H](O)[C@@H](C)/C=C/C(=O)O[C@@H]2[C@H](C)[C@H](CC1)O[C@@]1(O[C@@H](C[C@@H](C)O)[C@@H](C)CC1=O)[C@H]2C` [Oligomycin B] had a T.vaginalis_%inb_Rep1 in series [1] (HTS replicate 1, parasite screen 1 µg/mL) of 12.98%. In series [1] (HTS replicate 2, parasite screen 1 µg/mL), this molecule yielded a T.vaginalis_%inb_Rep2 of 13.09%. In series [2] (NFF fibroblasts, single concentration 5 µg/mL), the NFF_Activity entry is “I (otherwise these were reported as inactive (I))”.

With `CC[C@H]1OC(=O)[C@H](C)[C@@H](O[C@H]2C[C@@](C)(OC)[C@@H](O)[C@H](C)O2)[C@H](C)[C@@H](O[C@@H]2O[C@H](C)C[C@H](N(C)C)[C@H]2O)[C@](C)(O)C[C@@H](C)CN(C)[C@H](C)[C@@H](O)[C@]1(C)O` [BIA-A1312], in series [1] (setting [3]), the T.vaginalis_%inb_Rep1 is reported as 6.35%. The T.vaginalis_%inb_Rep2 in series [1] (setting [4]) is 11.21%. Moreover, in series [2] (setting [5]), the NFF_Activity entry is “I (otherwise these were reported as inactive (I))”.

On to `CCC1OC(=O)C(C)C(OC2CC(C)(OC)C(O)C(C)O2)C(C)C(OC2OC(C)CC(N(C)C)C2O)C2(C)CC(C)C3(O2)OC1(C)C(O)C3C` (stereo not shown) [BIA-A1348], for which the T.vaginalis_%inb_Rep1 in series [1] (setting [3]) is 15.19%. The T.vaginalis_%inb_Rep2 in series [1] (setting [4]) is 13.67%. Besides, the NFF_Activity entry in series [2] (setting [5]) was “I (otherwise these were reported as inactive (I))”.

As for `O=C(N[C@H](COC(=O)[C@H](Cc1ccccc1)NC(=O)c1ccccc1)Cc1ccccc1)c1ccccc1` [BIA-A1643], the T.vaginalis_%inb_Rep1 in series [1] (setting [3]) is reported as 13.09%. In series [1] (setting [4]), this molecule came in with a T.vaginalis_%inb_Rep2 of 15.04%. In series [2] (setting [5]), the NFF_Activity result was “I (otherwise these were reported as inactive (I))”.

On to `Cc1cc(O)cc(=O)o1` [BIA-H1736], for which, in series [1] (setting [6]), the T.vaginalis_%inb_Rep1 is 11.05%. In series [1] (setting [7]), the T.vaginalis_%inb_Rep2 amounted to 13.86%. Besides, in series [2] (NFF cells, screen at 5 µg/mL), the NFF_Activity entry was “I (otherwise these were reported as inactive (I))”.

In turn, `COc1c(O)c2c(=O)cc3c4c5c(cc(=O)c6c(O)c(OC)c(C[C@H](C)OC(C)=O)c(c(c1C[C@H](C)OC(C)=O)c24)c65)OCO3` [Diacetylcercosporin] returned a T.vaginalis_%inb_Rep1 in series [1] (setting [8]) of 12.65%. Also, in series [1] (setting [9]), the T.vaginalis_Absorbance_Rep1 is reported as 0.944 and the T.vaginalis_Absorbance_Rep2 was 0.821. Also, the T.vaginalis_%inb_Rep2 in series [1] (setting [10]) amounted to 14.53%. Moreover, in series [2] (NFF_NS1 screen at 5 µg/mL), the NFF_Activity result is “A (active (A) compounds having >25% inhibitory activity)”.

Take `CC(C)C[C@H]1C(=O)O[C@H](C(C)C)C(=O)N(C)[C@@H](CC(C)C)C(=O)O[C@H](C(C)C)C(=O)N(C)[C@@H](CC(C)C)C(=O)O[C@H](C(C)C)C(=O)N(C)[C@@H](CC(C)C)C(=O)O[C@H](C(C)C)C(=O)N1C` [BIA-B1557]: the T.vaginalis_%inb_Rep1 in series [1] (setting [3]) was found to be 15.24%. Besides, the T.vaginalis_%inb_Rep2 in series [1] (setting [4]) was found to be 16.12%. The NFF_Activity entry in series [2] (setting [5]) is “I (otherwise these were reported as inactive (I))”.

Consider `CNC[C@@H]1CC[C@@H](N)[C@@H](O[C@H]2[C@H](O)[C@@H](O[C@H]3OC[C@](C)(O)[C@H](NC)[C@H]3O)[C@H](N)C[C@@H]2N)O1` [Gentamicin C2b], for which the T.vaginalis_%inb_Rep1 in series [1] (setting [8]) came out at 11.00%. In series [1] (setting [9]), the T.vaginalis_Absorbance_Rep1 turned out to be 0.919 and the T.vaginalis_Absorbance_Rep2 was found to be 0.716. The same molecule yielded a T.vaginalis_%inb_Rep2 in series [1] (setting [10]) of 5.20%. In series [2] (NFF_NS1 screen at 5 µg/mL), the NFF_Activity entry is “I (otherwise these were reported as inactive (I))”.

`COC1=CC(C)=CC(C)C(O)C(C)CC(C)=CC=CC(OC)C(C(C)C(O)C(C)C2(O)CC(OC(=O)C=CC(=O)NC3=C(O)CCC3=O)C(C)C(C(C)C)O2)OC1=O` (stereo not shown) [BIA-B1110] displayed a T.vaginalis_%inb_Rep1 in series [1] (setting [3]) of 72.75%. This molecule gave a T.vaginalis_%inb_Rep2 in series [1] (setting [4]) of 93.35%. The NFF_Activity entry in series [2] (setting [5]) was “I (otherwise these were reported as inactive (I))”.

As for `OCC1=CC(NC2CC(CO)C(OC3OC(CO)C(O)C(O)C3O)C(O)C2O)C(O)C(O)C1O` (stereo not shown) [Validamycin A], the T.vaginalis_%inb_Rep1 in series [1] (setting [8]) came out at 14.26%. In addition, the T.vaginalis_%inb_Rep2 in series [1] (setting [10]) turned out to be 19.07%. In addition, the NFF_Activity result in series [2] (NFF fibroblast screen at 5 µg/mL, A = active, I = inactive) is “I (otherwise these were reported as inactive (I))”.

In turn, `CN1C(=O)c2ccccc2-n2c(nc3ccccc3c2=O)C1Cc1ccccc1` (stereo not shown) [BIA-B1647] registered a T.vaginalis_%inb_Rep1 in series [1] (setting [3]) of 16.42%. In series [1] (setting [4]), this molecule registered a T.vaginalis_%inb_Rep2 of 13.38%. Moreover, the NFF_Activity entry in series [2] (setting [5]) is “I (otherwise these were reported as inactive (I))”.
